Experiments:
[1] = tested on: HepG2; test: cells; details: Homo sapiens, HepG2, 72 h, read-out: IC50 HepG2
[2] = tested on: MDA-MB-231; test: cells; details: Homo sapiens, MDA-MB-231, 72 h, read-out: IC50 MDA-MB-231
[3] = tested on: HepG2; details: IC50 on LLC-PK1 divided by IC50 on HepG2
[4] = tested on: MDA-MB-231; details: IC50 on LLC-PK1 divided by IC50 on MDA-MB-231
[5] = molecular target: porcine brain tubulin (Sus scrofa, UniProt P02550+P02554); test: biochemical; details: read-out: % inhibition of tubulin polymerization
Sequence of porcine brain tubulin (P02550 whole entry): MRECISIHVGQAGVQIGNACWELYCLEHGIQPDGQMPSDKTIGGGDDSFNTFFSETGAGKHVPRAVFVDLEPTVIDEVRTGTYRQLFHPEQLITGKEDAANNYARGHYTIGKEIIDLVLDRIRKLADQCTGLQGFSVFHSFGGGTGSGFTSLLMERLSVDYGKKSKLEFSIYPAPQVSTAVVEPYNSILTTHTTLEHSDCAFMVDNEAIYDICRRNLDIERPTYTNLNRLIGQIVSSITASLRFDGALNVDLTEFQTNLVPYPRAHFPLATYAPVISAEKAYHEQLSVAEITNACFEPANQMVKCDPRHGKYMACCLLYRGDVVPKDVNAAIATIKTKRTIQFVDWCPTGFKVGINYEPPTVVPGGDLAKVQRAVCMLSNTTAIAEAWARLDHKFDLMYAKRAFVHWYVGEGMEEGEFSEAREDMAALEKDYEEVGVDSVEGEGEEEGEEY
Sequence of porcine brain tubulin (P02554 whole entry): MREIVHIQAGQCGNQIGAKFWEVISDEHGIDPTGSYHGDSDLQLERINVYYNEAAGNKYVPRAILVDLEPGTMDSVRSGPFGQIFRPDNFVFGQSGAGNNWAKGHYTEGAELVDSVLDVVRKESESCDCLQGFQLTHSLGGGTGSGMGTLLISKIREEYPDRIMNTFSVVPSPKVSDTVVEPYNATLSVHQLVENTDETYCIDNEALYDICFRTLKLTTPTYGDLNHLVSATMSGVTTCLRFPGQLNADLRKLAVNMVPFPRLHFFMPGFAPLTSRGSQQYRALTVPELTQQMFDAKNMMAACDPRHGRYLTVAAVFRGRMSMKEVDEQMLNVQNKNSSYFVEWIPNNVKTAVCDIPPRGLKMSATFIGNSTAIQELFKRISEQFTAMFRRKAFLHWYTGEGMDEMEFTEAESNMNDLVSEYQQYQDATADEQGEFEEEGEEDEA

IC50 [1] [µM] | IC50 [2] [µM] | inhibition at 20 µM [5] [%] | SMILES | SI HepG2 [3] | SI MDA-MB-231 [4]
13.2 ± 1.41 | 13.5 ± 1.43 | – | CCOc1cc(/C=C/C(=O)/C=C/c2c(C)nn(-c3ccccc3)c2Cl)ccc1O [Compound 7e, (1E,4E)-1-(5-Chloro-3-methyl-1-phenyl-1H-pyrazol-4-yl)-5-(4-hydroxy-3-ethoxyphenyl)penta-1,4-dien-3-one] | – | –
10.6 ± 1.38 | 5.5 ± 0.22 | 40.76 ± 0.33 | COc1cc(/C=C/C(=O)/C=C/c2cn(-c3ccccc3)nc2-c2ccccc2)ccc1O [Compound 10c, (1E,4E)-1-(1,3-Diphenyl-1H-pyrazol-4-yl)-5-(4-hydroxy-3-methoxyphenyl)penta-1,4-dien-3-one] | 1.49 | –
8 ± 0.87 | 7.71 ± 0.32 | – | COc1cc(/C=C/C(=O)/C=C/c2c(C)nn(-c3ccccc3)c2Cl)ccc1O [Compound 7c, (1E,4E)-1-(5-Chloro-3-methyl-1-phenyl-1H-pyrazol-4-yl)-5-(4-hydroxy-3-methoxyphenyl)penta-1,4-dien-3-one] | 1.19 | 1.24
> 25 | > 25 | – | Cc1nn(-c2cccc([N+](=O)[O-])c2)c(Cl)c1/C=C/C(=O)/C=C/c1ccc2c(c1)OCO2 [Compound 8f, (1E,4E)-1-(Benzo[d][1,3]dioxol-5-yl)-5-(5-chloro-3-methyl-1-(3-nitrophenyl)-1H-pyrazol-4-yl)penta-1,4-dien-3-one] | – | –
> 25 | 22 ± 3.24 | – | O=C(/C=C/c1ccc2c(c1)OCO2)/C=C/c1cn(-c2ccccc2)nc1-c1ccccc1 [Compound 10f, (1E,4E)-1-(Benzo[d][1,3]dioxol-5-yl)-5-(1,3-diphenyl-1H-pyrazol-4-yl)penta-1,4-dien-3-one] | – | –
> 25 | 23.3 ± 2.37 | – | COc1ccc(/C=C/C(=O)/C=C/c2cn(-c3ccccc3)nc2-c2ccccc2)cc1OC [Compound 10a, (1E,4E)-1-(3,4-Dimethoxyphenyl)-5-(1,3-diphenyl-1H-pyrazol-4-yl)penta-1,4-dien-3-one] | – | –
12 ± 0.56 | 8.79 ± 0.96 | – | CC(=O)O[C@H]1C(=O)[C@@]2(C)[C@H]([C@H](OC(=O)c3ccccc3)[C@]3(O)C[C@H](OC(=O)[C@H](O)[C@@H](NC(=O)c4ccccc4)c4ccccc4)C(C)=C1C3(C)C)[C@]1(OC(C)=O)CO[C@@H]1C[C@@H]2O [paclitaxel, reference compound] | – | –
11.18 ± 0.04 | 15.1 ± 0.2 | – | CCOc1cc(/C=C/C(=O)/C=C/c2c(C)nn(-c3cccc([N+](=O)[O-])c3)c2Cl)ccc1O [Compound 8e, (1E,4E)-1-[5-Chloro-3-methyl-1-(3-nitrophenyl)-1H-pyrazol-4-yl]-5-(4-hydroxy-3-ethoxyphenyl)penta-1,4-dien-3-one] | – | –
6.74 ± 0.26 | 3.29 ± 0.18 | 35.5 ± 0.51 | COc1ccc(/C=C/C(=O)/C=C/c2cn(-c3ccccc3)nc2-c2ccccc2)cc1O [Compound 10d, (1E,4E)-1-(1,3-Diphenyl-1H-pyrazol-4-yl)-5-(3-hydroxy-4-methoxyphenyl)penta-1,4-dien-3-one] | 1.25 | 2.55
> 25 | 16.67 ± 0.07 | – | Cc1nn(-c2ccccc2)c(Cl)c1/C=C/C(=O)/C=C/c1ccc2c(c1)OCO2 [Compound 7f, (1E,4E)-1-(Benzo[d][1,3]dioxol-5-yl)-5-(5-chloro-3-methyl-1-phenyl-1H-pyrazol-4-yl)penta-1,4-dien-3-one] | – | –
13.03 ± 0.12 | 7.84 ± 0.07 | – | COc1cc(/C=C/C(=O)/C=C/c2c(C)nn(-c3ccccc3)c2Cl)cc(OC)c1OC [Compound 7g, (1E,4E)-1-(5-Chloro-3-methyl-1-phenyl-1H-pyrazol-4-yl)-5-(3,4,5-trimethoxyphenyl)penta-1,4-dien-3-one] | – | –
14.65 ± 0.1 | 2.43 ± 0.04 | – | COc1cc(/C=C/C(=O)/C=C/c2c(C)nn(-c3cccc([N+](=O)[O-])c3)c2Cl)cc(OC)c1OC [Compound 8g, (1E,4E)-1-(5-Chloro-3-methyl-1-(3-nitrophenyl)-1H-pyrazol-4-yl)-5-(3,4,5-trimethoxyphenyl)penta-1,4-dien-3-one] | 0.40 | 2.44
> 25 | 13.3 ± 0.39 | – | COc1ccc(/C=C/C(=O)/C=C/c2c(C)nn(-c3ccccc3)c2Cl)c(OC)c1 [Compound 7b, (1E,4E)-1-(5-Chloro-3-methyl-1-phenyl-1H-pyrazol-4-yl)-5-(2,4-dimethoxyphenyl)penta-1,4-dien-3-one] | – | –
> 25 | > 25 | – | COc1ccc(/C=C/C(=O)/C=C/c2cn(-c3ccccc3)nc2-c2ccccc2)c(OC)c1 [Compound 10b, (1E,4E)-1-(2,4-Dimethoxyphenyl)-5-(1,3-diphenyl-1H-pyrazol-4-yl)penta-1,4-dien-3-one] | – | –
18.3 ± 3.14 | 12.3 ± 1.29 | – | COc1ccc(/C=C/C(=O)/C=C/c2c(C)nn(-c3cccc([N+](=O)[O-])c3)c2Cl)c(OC)c1 [Compound 8b, (1E,4E)-1-[5-Chloro-3-methyl-1-(3-nitrophenyl)-1H-pyrazol-4-yl]-5-(2,4-dimethoxyphenyl)penta-1,4-dien-3-one] | – | –
> 25 | 14.3 ± 0.37 | – | COc1cc(/C=C/C(=O)/C=C/c2cn(-c3ccccc3)nc2-c2ccccc2)cc(OC)c1OC [Compound 10g, (1E,4E)-1-(1,3-Diphenyl-1H-pyrazol-4-yl)-5-(3,4,5-trimethoxyphenyl)penta-1,4-dien-3-one] | – | –
16.6 ± 0.45 | 7 ± 0.02 | – | COc1cc(/C=C/C(=O)/C=C/c2c(C)nn(-c3cccc([N+](=O)[O-])c3)c2Cl)ccc1O [Compound 8c, (1E,4E)-1-[5-Chloro-3-methyl-1-(3-nitrophenyl)-1H-pyrazol-4-yl]-5-(4-hydroxy-3-methoxyphenyl)penta-1,4-dien-3-one] | – | –
13.5 ± 1.53 | 6.14 ± 0.33 | – | CCOc1cc(/C=C/C(=O)/C=C/c2cn(-c3ccccc3)nc2-c2ccccc2)ccc1O [Compound 10e, (1E,4E)-1-(1,3-Diphenyl-1H-pyrazol-4-yl)-5-(4-hydroxy-3-ethoxyphenyl)penta-1,4-dien-3-one] | – | –
6.69 ± 0.04 | 2.56 ± 0.01 | 22.1 ± 0.84 | COc1cc(/C=C/C(=O)/C=C/c2c(C)nn(-c3cccc([N+](=O)[O-])c3)c2Cl)cc(OC)c1O [Compound 8h, (1E,4E)-1-(5-Chloro-3-methyl-1-(3-nitrophenyl)-1H-pyrazol-4-yl)-5-(4-hydroxy-3,5-dimethoxyphenyl)penta-1,4-dien-3-one] | 2.30 | 6.01
11.6 ± 1.2 | 6.6 ± 0.16 | – | COc1ccc(/C=C/C(=O)/C=C/c2c(C)nn(-c3ccccc3)c2Cl)cc1OC [Compound 7a, (1E,4E)-1-(5-Chloro-3-methyl-1-phenyl-1H-pyrazol-4-yl)-5-(3,4-dimethoxyphenyl)penta-1,4-dien-3-one] | – | –
7.19 ± 0.37 | 6.89 ± 0.31 | 25.9 ± 0.33 | COc1ccc(/C=C/C(=O)/C=C/c2c(C)nn(-c3cccc([N+](=O)[O-])c3)c2Cl)cc1OC [Compound 8a, (1E,4E)-1-[5-Chloro-3-methyl-1-(3-nitrophenyl)-1H-pyrazol-4-yl]-5-(3,4-dimethoxyphenyl)penta-1,4-dien-3-one] | 2.93 | 3.05
25.3 ± 0.3 | 7.25 ± 0.08 | – | COc1ccc(/C=C/C(=O)/C=C/c2c(C)nn(-c3cccc([N+](=O)[O-])c3)c2Cl)cc1O [Compound 8d, (1E,4E)-1-[5-Chloro-3-methyl-1-(3-nitrophenyl)-1H-pyrazol-4-yl]-5-(3-hydroxy-4-methoxyphenyl)penta-1,4-dien-3-one] | – | –

SMILES | IC50 [1] [µM] | IC50 [2] [µM] | inhibition at 20 µM [5] [%] | SI HepG2 [3] | SI MDA-MB-231 [4]
COc1cc(/C=C/C(=O)CC(=O)/C=C/c2ccc(O)c(OC)c2)ccc1O [curcumin, reference compound] | 23.4 ± 7.27 | 20.7 ± 0.8 | – | 1.51 | 1.72
COc1cc(/C=C/C(=O)/C=C/c2cn(-c3ccccc3)nc2-c2ccccc2)cc(OC)c1O [Compound 10h, (1E,4E)-1-(1,3-Diphenyl-1H-pyrazol-4-yl)-5-(4-hydroxy-3,5-dimethoxyphenyl)penta-1,4-dien-3-one] | 4.98 ± 0.09 | 4.06 ± 0.02 | 25.73 ± 0.15 | 2.05 | 2.51
COc1cc(/C=C/C(=O)/C=C/c2c(C)nn(-c3ccccc3)c2Cl)cc(OC)c1O [Compound 7h, (1E,4E)-1-(5-Chloro-3-methyl-1-phenyl-1H-pyrazol-4-yl)-5-(4-hydroxy-3,5-dimethoxyphenyl)penta-1,4-dien-3-one] | 6.03 ± 0.06 | 3.64 ± 0.02 | 45.3 ± 0.81 | 2.14 | –
COc1ccc(/C=C/C(=O)/C=C/c2c(C)nn(-c3ccccc3)c2Cl)cc1O [Compound 7d, (1E,4E)-1-(5-Chloro-3-methyl-1-phenyl-1H-pyrazol-4-yl)-5-(3-hydroxy-4-methoxyphenyl)penta-1,4-dien-3-one] | 14.2 ± 0.77 | 5.61 ± 0.24 | 52 ± 0.65 | 1.14 | –

Source: publication PMC9520563 (ACS Omega, 2022)
